Several values for one entry are separate records, joined by “and”; a condition that tells them apart may be missing. Equal entries are not always repeated. Activity calls are given as the source filed them.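 The calls were made as follows: active = compounds giving half or more protection of infected cells from virus-caused growth loss, again on retest; inactive = the rest.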 Where a SMILES comes first, the peptide text is derived from it. [ ]: non-standard residue; d: D form. The star is where a group is joined. ξ: configuration not given here. NMeF = CN[C@@H](Cc1ccccc1)C(=O)O; ONb = O=[N+]([O-])c1ccc(CO*)cc1; NMeN = CN[C@@H](CC(N)=O)C(=O)O; NMeV = CN[C@H](C(=O)O)C(C)C; ξNMeV = CNC(C(=O)O)C(C)C; Boc = CC(C)(C)OC(=O)*; ξNMeA = CNC(C)C(=O)O; ξV = CC(C)C(N)C(=O)O
System: CEM cells HIV-1 protection, formazan growth assay
Test: NCI AIDS Antiviral Assay
Conditions: for IC50: measured here: growth of uninfected CEM cells
Procedure, shortened: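 Screen of anti-HIV-1 activity in human CEM cells using a formazan-based growth measurement at five drug concentrations. Hits with 50% or greater protection were repeated, and confirmation required reproducible complete protection.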

| SMILES | outcome | EC50 | IC50 |
| --- | --- | --- | --- |
| CC(CC(=O)N[C@H](C[C@@H](C)C(Cl)(Cl)Cl)c1nccs1)C(Cl)(Cl)Cl (stereo partly drawn) | active |  |  |
| O/N=C1/CCCCC1NO (stereo not drawn) |  | > 200 µM | 117 µM |
| Cc1nc(C(N)=S)sc1C(=O)CC(=O)C(=O)Nc1ccccc1[N+](=O)[O-] | inactive |  |  |
| CC(C)CN(CC(C)C)C(=O)C1CCCC[C@@H]1C(=O)O (stereo partly drawn) |  | > 891 µM | > 891 µM |
| CCN(CC)C(=O)c1ccc(C)c(N=NN(C)C)c1 |  | > 501 µM | 316 µM |
| CCC1(CC)C(=O)NN(C(=O)c2ccc(Cl)cc2)C1=O |  | > 200 µM | > 200 µM |
| O=C(OCCO)c1c(Cl)c(Cl)c(Cl)c(Cl)c1-c1c2cc(Br)c(=O)c(Br)c-2oc2c(Br)c(O)c(Br)cc12 |  | > 61.7 µM | 20.9 µM |
| C=CCC(C(=O)NC(N)=O)c1ccccc1 (stereo not drawn) |  | > 832 µM | 617 µM |
| Cc1ccc2oc(=O)c(-c3ccccc3)nc2c1 |  | > 21.9 µM | > 21.9 µM |
| COc1ccc2cc(C(C)C(O)c3cc(F)c(F)c(F)c3F)ccc2c1 (stereo not drawn) |  | 126 µM | > 200 µM |
| CC(=O)NC(C)(C)C1CCC(C)CC1 (stereo not drawn) |  | > 200 µM | > 200 µM |
| COc1ccc(C(CC(C)=O)c2c(O)c3ccccc3oc2=O)cc1OC (stereo not drawn) |  | > 200 µM | > 200 µM |
| O=c1[nH]c(Nc2nc3ccccc3[nH]2)nc(O)c1Cc1ccccc1 |  | > 151 µM | > 151 µM |
| O=c1c2cc(-c3ccccc3)sc2nc2n1N=C(c1ccc(Cl)cc1)CS2 |  | > 200 µM | > 200 µM |
| COc1ccc(NC2=NCCO2)c2c1CCCC2 |  | > 200 µM | 77.6 µM |
| O=[N+]([O-])c1cc2c(c([N+](=O)[O-])c1)NCc1ccccc1O2 |  | > 200 µM | > 200 µM |
| COC(=O)C(C)N(C)C(=O)[C@H](CC(N)=O)N(C)C(=O)[C@@H]1CCCN1C(=O)[C@H](C(C)C)N(C)C(=O)C(C(C)C)N(C)C(=O)[C@H](Cc1ccccc1)N(C)C(=O)C(NC(=O)OC(C)(C)C)C(C)C (stereo partly drawn) (Boc-[ξV][NMeF][ξNMeV][NMeV]P[NMeN][ξNMeA]-OMe) |  | > 100 µM | 17.8 µM |
| COc1cc(/C=C(\C#N)c2ccccn2)cc(Br)c1O |  | > 200 µM | 28.2 µM |
| O=[N+]([O-])O[C@H]1CO[C@H]2[C@@H]1OC[C@H]2O[N+](=O)[O-] |  | > 200 µM | > 200 µM |
| N#CC1(Cc2ccccc2[N+](=O)[O-])c2ccccc2C2C(N1C(=O)c1ccccc1)C2(Cl)Cl (stereo not drawn) | inactive |  |  |
| COC(=O)C(=O)/C(=C\N1C(=O)CC(=O)NC1=S)C(=O)c1ccc([N+](=O)[O-])cc1 |  | > 200 µM | > 200 µM |

| SMILES | outcome | EC50 | IC50 |
| --- | --- | --- | --- |
| O=C1CCC(C(Sc2ccccc2)(Sc2ccccc2)Sc2ccccc2)C1 (stereo not drawn) |  | > 200 µM | 38.9 µM |
| NC(=S)NNCC(=O)CC(O)(C(F)(F)F)C(F)(F)Cl (stereo not drawn) |  | > 200 µM | 123 µM |
| N=c1n(CC(=O)NC23CC4CC(CC(C4)C2)C3)c2ccccc2n1CC(=O)NC12CC3CC(CC(C3)C1)C2 |  | > 200 µM | 3.72 µM |
| COc1ccc2c(=O)c(-c3ccc(OC)c(OC)c3)c(C)oc2c1 |  | > 200 µM | > 200 µM |
| CC1CCC(C(C)C)C(O[C@@H]2OC(=O)C[C@@H]2Sc2ccccc2)C1 (stereo partly drawn) | inactive |  |  |
| CC1=NNC(=O)C1C1CC(c2c[nH]c3ccccc23)=NN/C1=N\N (stereo not drawn) |  | > 100 µM | > 100 µM |
| CC1=C(C(=O)NCc2ccccc2)C(c2ccc([N+](=O)[O-])cc2)C(C(=O)NCc2ccccc2)=C(C)N1 |  | > 14.5 µM | > 14.5 µM |
| N#CC(NNC(=O)Cc1ccccc1)c1ccc(O)cc1 (stereo not drawn) |  | > 891 µM | 245 µM |
| CC1=N/C(=C\c2ccc(Br)cc2)C(=O)O1 |  | > 135 µM | > 135 µM |
| COC(=O)[C@H](Cc1c[nH]c2ccccc12)NP(=O)(O)OCC1C=CC(n2cc(C)c(=O)[nH]c2=O)O1 (stereo partly drawn) |  | 28.2 µM | > 200 µM |
| Cc1cc(Cl)cc(S)c1S(=O)(=O)Nc1nnc2c3ccccc3cnn12 |  | 77.6 µM | > 200 µM |
| OCCN(CCO)CN(CO)c1nc(N(CO)CN(CCO)CCO)nc(N(CO)CN(CCO)CCO)n1 |  | > 437 µM | > 437 µM |
| CCOP(=S)(N/N=C1\CC2CCC1C2)OCC (stereo not drawn) |  | > 200 µM | > 200 µM |
| CCOC(=O)CSc1nc(N)c2c(-c3ccccc3)c3c(nc2n1)CCCC3 |  | > 200 µM | > 200 µM |
| C[n+]1c(-c2ccc(/C=N\NC(=O)c3cccc(C(=O)N/N=C/c4ccc(-c5cn6ccccc6[n+]5C)cc4)c3)cc2)cn2ccccc21 |  | 6.03 µM | 89.1 µM |
| CCOC(=O)C(NC(=O)c1ccccc1)(N1CCN(c2cc3c(cc2F)c(=O)c(C(=O)O)cn3CC)CC1)C(F)(F)F (stereo not drawn) |  | > 200 µM | 34.7 µM |
| CN1CCCOC(c2ccc(Cl)cc2)O1 (stereo not drawn) |  | > 200 µM | > 200 µM |
| CC(=O)NC1C(OCc2ccccc2)OC(CO)C(O)C1OCC(=O)NC(C)C(=O)NC(CCC(=O)NCCCCCNc1c2ccccc2nc2cccc([N+](=O)[O-])c12)C(N)=O (stereo not drawn) |  | > 200 µM | 0.0776 µM |
| Cc1cc([N+](=O)[O-])ccc1Sc1c2ccccc2nc2cc(Cl)ccc12 |  | > 19.1 µM | > 19.1 µM |
| N#Cc1c(-c2ccc(Cl)cc2Cl)nc2[nH][nH]c(=S)n2c1=O |  | > 100 µM | > 100 µM |
| Cc1cccc2c(=O)c3cccc(CC(=O)O)c3oc12 |  | > 200 µM | > 200 µM |

| SMILES | outcome | EC50 | IC50 |
| --- | --- | --- | --- |
| CCCCCCCCCCCCCC(=O)OCC1OC(n2cc(C)c(=O)[nH]c2=O)CC1F (stereo not drawn) |  | 0.0437 µM | 120 µM |
| CCOC(=O)C1C(=O)CN2CCc3c([nH]c4ccccc34)C12C(=O)OCC (stereo not drawn) |  | > 257 µM | 162 µM |
| CCS(=O)(=O)c1cc(=O)[nH]c(=O)[nH]1 |  | 100 µM | 240 µM |
| Cc1[nH]c(=S)c(C#N)c(C)c1C |  | > 100 µM | > 100 µM |
| C=CCN=C1NC(=O)C(CC(=O)Nc2cccc(Cl)c2)S1 (stereo not drawn) |  | > 288 µM | > 288 µM |
| CC1=NN(C(=O)CC(=O)N(C(=O)c2ccccc2)c2ccc(Cl)cc2)C(=O)C1N=Nc1ccc([N+](=O)[O-])cc1 (stereo not drawn) |  | 174 µM | > 200 µM |
| O=C1C2C3C=CC(O3)C2C(=O)N1/N=C\C(O)C(O)C(O)C(O)CO (stereo not drawn) |  | > 129 µM | > 129 µM |
| CC(=O)NC(=O)c1ccccc1O |  | > 724 µM | 389 µM |
| C/C(CCO)=N\NC(N)=S |  | > 200 µM | > 200 µM |
| CCC[CH2][Sn]1([CH2]CCC)[O]C(=O)C2C(C=C(C)C)C=C(C)C(C)C2C(=O)[O]1 (stereo not drawn) |  | > 2 µM | 0.0871 µM |
| CCN=C(NC(=O)c1ccccc1F)SCSC(=NCC)NC(=O)c1ccccc1F |  | > 200 µM | 55 µM |
| O=C(NC(=O)C(Cc1ccccc1)c1ccccc1)C(Cc1ccccc1)c1ccccc1 (stereo not drawn) |  | > 12 µM | > 12 µM |
| CN1C2C=CC(=O)C1C(C#N)C2 (stereo not drawn) |  | > 200 µM | 34.7 µM and 115 µM |
| Cc1ccccc1OCC1COC(c2ccc(Cl)cc2)O1 (stereo not drawn) |  | > 200 µM | > 200 µM |
| O=C(CC(c1ccccc1)C(Sc1ccccc1)(Sc1ccccc1)Sc1ccccc1)c1ccccc1 (stereo not drawn) |  | > 100 µM | > 100 µM |
| O=C(Nc1cccc2c(OC(=O)C(Cl)Cl)c(N=Nc3ccc(S(=O)(=O)Nc4nccs4)cc3)cc(N=Nc3ccc(S(=O)(=O)Nc4nccs4)cc3)c12)C(Cl)Cl (tested in a mixture with another compound) | inactive | 46.8 µM and > 50.1 µM |  |
| COC(=O)/C=c1\s/c(=C\C(=O)OC)c2ccccc12 | inactive |  |  |
| CC(C)c1cc(OCC(O)CO)cc(C(C)C)c1 (stereo not drawn) |  | > 141 µM | > 141 µM |
| Cc1[nH]n(-c2nc3c(c(=O)[nH]2)CCC3)c(=O)c1CCO |  | > 200 µM | 182 µM |
| CC(=O)NNc1nc(C)c(C(/C=C/c2ccc(Cl)cc2)=N\N=C(N)N)s1 |  | > 18.2 µM | > 18.2 µM |
| CC1=NN(c2ccccc2)C(=O)C1=Nc1c(C)[nH]n(-c2ccccc2)c1=O |  | > 200 µM | > 200 µM |

| SMILES | outcome | EC50 | IC50 |
| --- | --- | --- | --- |
| OCC12CCCC(CO)(COC1)C2O (stereo not drawn) |  | > 200 µM | > 200 µM |
| CC(C)(O)S(=O)(=O)O |  | > 200 µM | > 200 µM |
| COc1ccc(/C=C/C(=O)c2cccc(C(=O)/C=C/c3ccc(OC)c(OC)c3)n2)cc1OC |  | > 200 µM | 110 µM |
| COc1ccc(/C(C#N)=C/c2ccc(N(C)CCC#N)cc2)cc1 |  | > 200 µM | 3.16 µM |
| COc1ccc(Nc2nc3ccccc3nc2C(=O)O)cc1OC |  | > 200 µM | 85.1 µM |
| N#Cc1ccc(Cc2ccccn2)cc1Cl | inactive |  |  |
| O=c1[nH][nH]c(=O)c2c1nc(SCc1ccc(Br)cc1)n2Cc1ccccc1 |  | > 214 µM | > 214 µM |
| Cn1c2cc(Cl)ccc2c2ccc3c(c21)C(=O)C=CC3=O |  | > 200 µM | 4.17 µM |
| COc1ccc(C(=O)/C=C/c2ccc(OCC(=N)N)cc2)cc1 |  | > 200 µM | 9.77 µM |
| CC(=O)NNc1nc(C)c(C(/C=C/c2ccc(Cl)cc2)=N\NS(=O)(=O)c2ccc(C)cc2)s1 |  | > 2.88 µM | > 2.88 µM |
| O=C1Cc2c([nH]c3ccccc23)C2(CC3CCCCN13)OCCO2 (stereo not drawn) |  | > 200 µM | 182 µM |
| COc1ccc(C(=O)C(C(=O)C(=O)Nc2ccc(Cl)c(Cl)c2)c2ccc(OC)cc2)cc1 (stereo not drawn) |  | > 75.9 µM | > 75.9 µM |
| CN1C(=S)CSc2ccccc21 |  | > 182 µM | > 182 µM |
| S=C1NNC2(C(=S)N1)c1ccccc1-c1ccccc12 |  | > 200 µM | 87.1 µM |
| c1cc2c(c(CC3CO3)c1CC1CO1)OCCOCCOCCOCCO2 (stereo not drawn) |  | > 661 µM | 1.38 µM |
| CC(C)CC(NC(=O)OC(C)(C)C)C(=O)NC(CCC(=O)OCc1ccc([N+](=O)[O-])cc1)C(=O)OCc1ccc([N+](=O)[O-])cc1 (stereo not drawn) (Boc-Leu-Glu(ONb)-ONb; configuration not given here) |  | > 200 µM | 10.7 µM |
| COC(=O)CCCC=C(c1cc(Br)c(OC)c(C(F)(F)F)c1)c1cc(Br)c(OC)c(C(F)(F)F)c1 |  | > 200 µM | 40.7 µM |
| COC1/C=C/OC2(C)Oc3c(C)c(O)c4c(O)c(c(/C=N/N5C(C)CN(Cc6cccc(O)c6)CC5C)c(O)c4c3C2=O)NC(=O)/C(C)=C\C=C\C(C)C(O)C(C)C(O)C(C)C(OC(C)=O)C1C (stereo not drawn) |  | > 200 µM | 6.46 µM |
| c1ccc(N=C(N2CCOCC2)N(CCN2CCOCC2)c2ccccc2)cc1 |  | > 200 µM | 182 µM |

Reference: PubChem BioAssay AID179 (DTP/NCI, 2004)
